Tested on: compound-treated mice
Test: Neuropharmacological assay (SmartCube): behavioral activity signature and minimal effective dose
Type: in vivo
Conditions: for minimal effective dose: Mus musculus, ip, MED = dose having 50% or more total activity, read-out: Potency: minimal effective dose (MED); for AD: ADHD (probability of activity signature) / AG: analgesic (probability of activity signature) / AX: anxiolytic (probability of activity signature) / CE: cognitive enhancer (probability of activity signature) / DP: anti-depressant (probability of activity signature) / MS: mood stabilizer (probability of activity signature) / PS: anti-psychotic (probability of activity signature) / SD: sedative hypnotic (probability of activity signature) / UN: uncharacterized CNS activity (probability of activity signature): i.p. 15 min before test, most efficacious dose(s)
Procedure, shortened: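 Video-recorded behavior is compared algorithmically against a reference-compound database, yielding class probabilities (best dose reported). Compounds given i.p. in NMP/PEG/propylene glycol 15 min pre-test at 3 doses; potency as MED, the dose (mpk, range usually 0.3–30) reaching ≥50% total activity.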

| Compound | minimal effective dose [mg/kg] | AD: ADHD (probability of activity signature) | AG: analgesic (probability of activity signature) | AX: anxiolytic (probability of activity signature) | CE: cognitive enhancer (probability of activity signature) | DP: anti-depressant (probability of activity signature) | MS: mood stabilizer (probability of activity signature) | PS: anti-psychotic (probability of activity signature) | SD: sedative hypnotic (probability of activity signature) | UN: uncharacterized CNS activity (probability of activity signature) | AX: anxiolytic (probability of activity signature) (hydrochloride) | DP: anti-depressant (probability of activity signature) (hydrochloride) | PS: anti-psychotic (probability of activity signature) (hydrochloride) | SD: sedative hypnotic (probability of activity signature) (hydrochloride) | UN: uncharacterized CNS activity (probability of activity signature) (hydrochloride) |
| --- | --- | --- | --- | --- | --- | --- | --- | --- | --- | --- | --- | --- | --- | --- | --- |
| Cc1cc(C)c2c(c1)C(N)COC2.Cl (centres unmarked) [Example 46, 6,8-Dimethylisochroman-4-amine hydrochloride] | < 3 | + (LOQ ≤ + <5%) | ++ (5% ≤ ++ <25%) | ++ (5% ≤ ++ <25%) | ++ (5% ≤ ++ <25%) | + (LOQ ≤ + <5%) | + (LOQ ≤ + <5%) | + (LOQ ≤ + <5%) | ++ (5% ≤ ++ <25%) | ++++ (50% ≤ ++++) |  |  |  |  |  |
| Cc1ccc(C)c2c1COCC2N.Cl (centres unmarked) [Example 47, 5,8-Dimethylisochroman-4-amine hydrochloride] | < 3 | + (LOQ ≤ + <5%) | ++ (5% ≤ ++ <25%) | ++ (5% ≤ ++ <25%) | ++ (5% ≤ ++ <25%) | ++ (5% ≤ ++ <25%) | ++ (5% ≤ ++ <25%) | ++ (5% ≤ ++ <25%) | + (LOQ ≤ + <5%) | ++++ (50% ≤ ++++) |  |  |  |  |  |
| Cc1ccc(Cl)c2c1C(N)COC2.Cl (centres unmarked) [Example 48, 8-Chloro-5-methylisochroman-4-amine hydrochloride] | < 3 | + (LOQ ≤ + <5%) | ++ (5% ≤ ++ <25%) | +++ (25% ≤ +++ <50%) | +++ (25% ≤ +++ <50%) | + (LOQ ≤ + <5%) | + (LOQ ≤ + <5%) | ++ (5% ≤ ++ <25%) | ++ (5% ≤ ++ <25%) | ++ (5% ≤ ++ <25%) |  |  |  |  |  |
| Cc1cc(Cl)c2c(c1)C(N)COC2.Cl (centres unmarked) [Example 49, 8-Chloro-6-methylisochroman-4-amine hydrochloride] | 3 to 10 | + (LOQ ≤ + <5%) | ++ (5% ≤ ++ <25%) | ++ (5% ≤ ++ <25%) | ++ (5% ≤ ++ <25%) | ++ (5% ≤ ++ <25%) | + (LOQ ≤ + <5%) | ++ (5% ≤ ++ <25%) | ++ (5% ≤ ++ <25%) | ++++ (50% ≤ ++++) |  |  |  |  |  |
| Cl.NC1COCc2c1ccc1ccccc21 (centres unmarked) [Example 50, 3,4-Dihydro-1H-benzo[h]isochromen-4-amine hydrochloride] | 10 to 30 | + (LOQ ≤ + <5%) | ++ (5% ≤ ++ <25%) | ++ (5% ≤ ++ <25%) | ++ (5% ≤ ++ <25%) | +++ (25% ≤ +++ <50%) | + (LOQ ≤ + <5%) | ++ (5% ≤ ++ <25%) | + (LOQ ≤ + <5%) | ++ (5% ≤ ++ <25%) |  |  |  |  |  |
| Cl.NC1COCc2ccc3c(c21)C1CCC3C1 (centres unmarked) [Example 51, 2,4,7,8,9,10-Hexahydro-1H-7,10-methanobenzo[f]isochromen-1-amine hydrochloride] | 3 to 10 | + (LOQ ≤ + <5%) | ++ (5% ≤ ++ <25%) |  | ++ (5% ≤ ++ <25%) |  | + (LOQ ≤ + <5%) |  |  |  | ++ (5% ≤ ++ <25%) | ++ (5% ≤ ++ <25%) | ++ (5% ≤ ++ <25%) | + (LOQ ≤ + <5%) | ++++ (50% ≤ ++++) |
| Cl.NC1COCc2ccc3c(c21)CCCO3 (centres unmarked) [Example 52, 1,2,4,8,9,10-Hexahydropyrano[4,3-f]chromen-1-amine hydrochloride] | 3 to 10 | + (LOQ ≤ + <5%) | ++ (5% ≤ ++ <25%) | +++ (25% ≤ +++ <50%) | ++ (5% ≤ ++ <25%) | ++ (5% ≤ ++ <25%) | + (LOQ ≤ + <5%) | ++ (5% ≤ ++ <25%) | ++ (5% ≤ ++ <25%) | + (LOQ ≤ + <5%) |  |  |  |  |  |
| CCc1cccc2c1C(N)COC2.Cl (centres unmarked) [Example 53, 5-Ethylisochroman-4-amine hydrochloride] | 3 to 10 | + (LOQ ≤ + <5%) | ++ (5% ≤ ++ <25%) | ++ (5% ≤ ++ <25%) | ++ (5% ≤ ++ <25%) | ++ (5% ≤ ++ <25%) | + (LOQ ≤ + <5%) | ++ (5% ≤ ++ <25%) | ++ (5% ≤ ++ <25%) | ++++ (50% ≤ ++++) |  |  |  |  |  |
| CNC1COCc2ccccc21.Cl (centres unmarked) [Example 54, N-Methylisochroman-4-amine hydrochloride] | 10 to 30 | + (LOQ ≤ + <5%) | ++ (5% ≤ ++ <25%) | ++ (5% ≤ ++ <25%) | + (LOQ ≤ + <5%) | ++ (5% ≤ ++ <25%) | + (LOQ ≤ + <5%) | ++ (5% ≤ ++ <25%) | + (LOQ ≤ + <5%) | +++ (25% ≤ +++ <50%) |  |  |  |  |  |
| Cc1ccc2c(c1C)C(NC(C)C)COC2.Cl (centres unmarked) [Example 55] | 3 to 10 | + (LOQ ≤ + <5%) | ++ (5% ≤ ++ <25%) | ++ (5% ≤ ++ <25%) | ++ (5% ≤ ++ <25%) | + (LOQ ≤ + <5%) | + (LOQ ≤ + <5%) | ++ (5% ≤ ++ <25%) | + (LOQ ≤ + <5%) | +++ (25% ≤ +++ <50%) |  |  |  |  |  |
| Cc1ccc2c(c1C)C(NCCO)COC2.Cl (centres unmarked) [Example 56] | 10 to 30 | + (LOQ ≤ + <5%) | +++ (25% ≤ +++ <50%) | ++ (5% ≤ ++ <25%) | ++ (5% ≤ ++ <25%) | ++ (5% ≤ ++ <25%) | + (LOQ ≤ + <5%) | + (LOQ ≤ + <5%) | + (LOQ ≤ + <5%) | + (LOQ ≤ + <5%) |  |  |  |  |  |
| CNC1COCc2ccc(C)c(C)c21.Cl (centres unmarked) [Example 57, N,5,6-Trimethylisochroman-4-amine hydrochloride] | 3 to 10 | + (LOQ ≤ + <5%) | ++ (5% ≤ ++ <25%) | ++ (5% ≤ ++ <25%) | +++ (25% ≤ +++ <50%) | ++ (5% ≤ ++ <25%) | + (LOQ ≤ + <5%) | ++ (5% ≤ ++ <25%) | ++ (5% ≤ ++ <25%) | +++ (25% ≤ +++ <50%) |  |  |  |  |  |
| CCNC1COCc2ccc(C)c(C)c21.Cl (centres unmarked) [Example 58] | 3 to 10 | + (LOQ ≤ + <5%) | ++ (5% ≤ ++ <25%) | ++ (5% ≤ ++ <25%) | ++ (5% ≤ ++ <25%) | ++ (5% ≤ ++ <25%) | + (LOQ ≤ + <5%) | ++ (5% ≤ ++ <25%) | ++ (5% ≤ ++ <25%) | +++ (25% ≤ +++ <50%) |  |  |  |  |  |
| CNC1CCOCc2ccc(C)cc21.Cl (centres unmarked) [Example 59] | 3 to 10 | + (LOQ ≤ + <5%) | +++ (25% ≤ +++ <50%) | ++ (5% ≤ ++ <25%) | ++ (5% ≤ ++ <25%) | ++ (5% ≤ ++ <25%) | + (LOQ ≤ + <5%) | ++ (5% ≤ ++ <25%) | ++ (5% ≤ ++ <25%) | +++ (25% ≤ +++ <50%) |  |  |  |  |  |

Source: patent US11077090B2, “Compounds and compositions and uses thereof” (Sunovion Pharmaceuticals Inc., priority 2016, dated 2021)
